# Test results published in US10980889B1 (Revolution Medicines, Inc., priority 2018, dated 2021).
# How the values were obtained:
# P-4E-BP1 (T37/46) = assay: Cell based AlphaLISA assay, inhibition of P-4E-BP1 (T37/46) in MDA-MB-468 cells (mTORC1 substrate); settings: AlphaLisa, two to four hours at 37° C.; for IC50: Homo sapiens, 4 h, read-out: pIC50 for Inhibition of mTORC1 and mTORC2 Substrate Phosphorylation P-4E-BP1-(T37/46) (converted)
# Method: (§1) Cell Based AlphaLISA Assays For Determining IC50 For Inhibition of P-Akt (S473), P-4E-BP1(T37/46), and P-P70S6K (T389) in MDA-MB-468 Cells
# (§2) mTOR Kinase Cellular Assay
# (§3) To measure functional activity of mTORC1 and mTORC2 in cells the phosphorylation of 4EBPT (Thr37/46) and P70S6K (Thr389), and AKT1/2/3 (Ser473) was monitored using AlphaLisa SureFire Ultra Kits (Perkin Elmer). […] Incubations were terminated by removal of the assay buffer and addition of lysis buffer provided with the assay kit. Samples were processed according to the manufacturer's instructions. The Alpha signal from the respective phosphoproteinswas measured in duplicate using a microplate reader (Envision, Perkin-Elmer or Spectramax M5, Molecular Devices). Inhibitor concentration response curves were analyzed using normalized IC50 regression curve filling with control based normalization.
# P-Akt (S473) = assay: Cell based AlphaLISA assay, inhibition of P-Akt (S473) in MDA-MB-468 cells (mTORC2 substrate); settings: AlphaLisa, two to four hours at 37° C.; for IC50: Homo sapiens, 4 h, read-out: pIC50 for Inhibition of mTORC1 and mTORC2 Substrate Phosphorylation p-AKT1/2/3-(S473) (converted)
# Method: as §1, §2, §3
# P-P70S6K (T389) = assay: Cell based AlphaLISA assay, inhibition of P-P70S6K (T389) in MDA-MB-468 cells (mTORC1 substrate); settings: AlphaLisa, two to four hours at 37° C.; for IC50: Homo sapiens, 4 h, read-out: pIC50 for Inhibition of mTORC1 and mTORC2 Substrate Phosphorylation p-P70S6K-(T389) (converted)
# Method: as §1, §2, §3
smiles,measurement,setting,value
CO[C@H]1C[C@@H]2CC[C@@H](C)[C@@](O)(O2)C(=O)C(=O)N2CCCC[C@H]2C(=O)O[C@H]([C@H](C)C[C@@H]2CC[C@@H](OC(=O)NCCOCCOCCOCCOCCOCCOCCOCCOCC(=O)N3CCc4cc(Cn5nc(-c6ccc7oc(N)nc7c6)c6c(N)ncnc65)ccc4C3)[C@H](OC)C2)C[C@@H](O)[C@H](C)/C=C(\C)[C@@H](O)[C@@H](OC)C(=O)[C@H](C)C[C@H](C)/C=C/C=C/C=C/1C [Example 28],IC50,P-4E-BP1 (T37/46),< 3.16 nM
same,IC50,P-Akt (S473),> 1000 nM
same,IC50,P-P70S6K (T389),< 1 nM
CO[C@H]1C[C@@H]2CC[C@@H](C)[C@@](O)(O2)C(=O)C(=O)N2CCCC[C@H]2C(=O)O[C@H]([C@H](C)C[C@@H]2CC[C@@H](OC(=O)NCCOCCOCCOCCOCCOCCOCCOCCOCCC(=O)N3CCc4cc(Cn5nc(-c6ccc7oc(N)nc7c6)c6c(N)ncnc65)ccc4C3)[C@H](OC)C2)C[C@H](N=[N+]=[N-])[C@H](C)/C=C(\C)[C@@H](O)[C@@H](OC)C(=O)[C@H](C)C[C@H](C)/C=C/C=C/C=C/1C [Example 30],IC50,P-4E-BP1 (T37/46),< 3.16 nM
same,IC50,P-Akt (S473),3.16 to 31.6 nM
same,IC50,P-P70S6K (T389),< 1 nM
CO[C@H]1C[C@@H]2CC[C@@H](C)[C@@](O)(O2)C(=O)C(=O)N2CCCC[C@H]2C(=O)O[C@H]([C@H](C)C[C@@H]2CC[C@@H](OC(=S)NCCOCCOCCOCCOCCOCCOCCOCCOCCC(=O)N3CCc4cc(Cn5nc(-c6ccc7oc(N)nc7c6)c6c(N)ncnc65)ccc4C3)[C@H](OC)C2)C[C@@H](O)[C@H](C)/C=C(\C)[C@@H](O)[C@@H](OC)C(=O)[C@H](C)C[C@H](C)/C=C/C=C/C=C/1C [Example 33],IC50,P-4E-BP1 (T37/46),< 3.16 nM
same,IC50,P-Akt (S473),> 1000 nM
same,IC50,P-P70S6K (T389),< 1 nM
CO[C@H]1C[C@@H]2CC[C@@H](C)[C@@](O)(O2)C(=O)C(=O)N2CCCC[C@H]2C(=O)O[C@H]([C@H](C)C[C@@H]2CC[C@@H](OC(=S)NCCOCCOCCOCCOCCOCCOCCOCCOCCC(=O)N3CCc4cc(Cn5nc(-c6ccc7oc(N)nc7c6)c6c(N)ncnc65)ccc4C3)[C@H](OC)C2)C[C@@H](OC)[C@H](C)/C=C(\C)[C@@H](O)[C@@H](OC)C(=O)[C@H](C)C[C@H](C)/C=C/C=C/C=C/1C [Example 34],IC50,P-4E-BP1 (T37/46),> 1000 nM
same,IC50,P-Akt (S473),> 1000 nM
same,IC50,P-P70S6K (T389),< 1 nM
CO[C@H]1C[C@@H]2CC[C@@H](C)[C@@](O)(O2)C(=O)C(=O)N2CCCC[C@H]2C(=O)O[C@H]([C@H](C)C[C@@H]2CC[C@@H](OC(=O)NCCOCCOCCOCCOCCOCCOCCOCCOCCC(=O)NCc3ccc(Cn4nc(-c5ccc6oc(N)nc6c5)c5c(N)ncnc54)cc3)[C@H](OC)C2)CC(=O)[C@H](C)/C=C(\C)[C@@H](O)[C@@H](OC)C(=O)[C@H](C)C[C@H](C)/C=C/C=C/C=C/1C [Example 35],IC50,P-4E-BP1 (T37/46),< 3.16 nM
same,IC50,P-Akt (S473),3.16 to 31.6 nM
same,IC50,P-P70S6K (T389),< 1 nM
CO[C@H]1C[C@@H]2CC[C@@H](C)[C@@](O)(O2)C(=O)C(=O)N2CCCC[C@H]2C(=O)O[C@H]([C@H](C)C[C@@H]2CC[C@@H](OC(=O)NCCOCCOCCOCCOCCOCCOCCOCCOCCC(=O)NCc3ccc(Cn4nc(-c5ccc6oc(N)nc6c5)c5c(N)ncnc54)cc3)[C@H](OC)C2)C[C@@H](O)[C@H](C)/C=C(\C)[C@@H](O)[C@@H](OC)C(=O)[C@H](C)C[C@H](C)/C=C/C=C/C=C/1C [Example 36],IC50,P-4E-BP1 (T37/46),< 3.16 nM
same,IC50,P-Akt (S473),> 1000 nM
same,IC50,P-P70S6K (T389),< 1 nM
CO[C@H]1C[C@@H]2CC[C@@H](C)[C@@](O)(O2)C(=O)C(=O)N2CCCC[C@H]2C(=O)O[C@H]([C@H](C)C[C@@H]2CC[C@@H](OC(=O)NCCOCCOCCOCCOCCOCCOCCOCCOCCC(=O)NCc3ccc(Cn4nc(-c5ccc6oc(N)nc6c5)c5c(N)ncnc54)cc3)[C@H](OC)C2)C[C@@H](OC)[C@H](C)/C=C(\C)[C@@H](O)[C@@H](OC)C(=O)[C@H](C)C[C@H](C)/C=C/C=C/C=C/1C [Example 37],IC50,P-4E-BP1 (T37/46),< 3.16 nM
same,IC50,P-Akt (S473),> 1000 nM
same,IC50,P-P70S6K (T389),< 1 nM
CO[C@H]1C[C@@H]2CC[C@@H](C)[C@@](O)(O2)C(=O)C(=O)N2CCCC[C@H]2C(=O)O[C@H]([C@H](C)C[C@@H]2CC[C@@H](OC(=O)NCCOCCOCCOCCOCCOCCOCCOCCOCCC(=O)NCc3ccc(Cn4nc(-c5ccc6oc(N)nc6c5)c5c(N)ncnc54)cc3)[C@H](OC)C2)C[C@H](N=[N+]=[N-])[C@H](C)/C=C(\C)[C@@H](O)[C@@H](OC)C(=O)[C@H](C)C[C@H](C)/C=C/C=C/C=C/1C [Example 38],IC50,P-4E-BP1 (T37/46),> 1000 nM
same,IC50,P-Akt (S473),> 1000 nM
same,IC50,P-P70S6K (T389),< 1 nM
CO[C@H]1C[C@@H]2CC[C@@H](C)[C@@](O)(O2)C(=O)C(=O)N2CCCC[C@H]2C(=O)O[C@H]([C@H](C)C[C@@H]2CC[C@@H](OC(=S)NCCOCCOCCOCCOCCOCCOCCOCCOCCC(=O)NCc3ccc(Cn4nc(-c5ccc6oc(N)nc6c5)c5c(N)ncnc54)cc3)[C@H](OC)C2)C[C@@H](O)[C@H](C)/C=C(\C)[C@@H](O)[C@@H](OC)C(=O)[C@H](C)C[C@H](C)/C=C/C=C/C=C/1C [Example 39],IC50,P-4E-BP1 (T37/46),< 3.16 nM
same,IC50,P-Akt (S473),< 3.16 nM
same,IC50,P-P70S6K (T389),< 1 nM
CO[C@H]1C[C@@H]2CC[C@@H](C)[C@@](O)(O2)C(=O)C(=O)N2CCCC[C@H]2C(=O)O[C@H]([C@H](C)C[C@@H]2CC[C@@H](OC(=O)NCCOCCOCCOCCOCCOCCOCCOCCOCCC(=O)NCCS(=O)(=O)c3ccc(C(=O)N4CCOc5ccc(-c6ccc(N)nc6)cc5C4)c(C)c3)[C@H](OC)C2)CC(=O)[C@H](C)/C=C(\C)[C@@H](O)[C@@H](OC)C(=O)[C@H](C)C[C@H](C)/C=C/C=C/C=C/1C [Example 40],IC50,P-4E-BP1 (T37/46),< 3.16 nM
same,IC50,P-Akt (S473),3.16 to 31.6 nM
same,IC50,P-P70S6K (T389),< 1 nM
CO[C@H]1C[C@@H]2CC[C@@H](C)[C@@](O)(O2)C(=O)C(=O)N2CCCC[C@H]2C(=O)O[C@H]([C@H](C)C[C@@H]2CC[C@@H](OC(=O)NCCOCCOCCOCCOCCOCCOCCOCCOCCC(=O)NCCS(=O)(=O)c3ccc(C(=O)N4CCOc5ccc(-c6ccc(N)nc6)cc5C4)c(C)c3)[C@H](OC)C2)C[C@@H](O)[C@H](C)/C=C(\C)[C@@H](O)[C@@H](OC)C(=O)[C@H](C)C[C@H](C)/C=C/C=C/C=C/1C [Example 41],IC50,P-4E-BP1 (T37/46),< 3.16 nM
same,IC50,P-Akt (S473),> 1000 nM
same,IC50,P-P70S6K (T389),< 1 nM
CO[C@H]1C[C@@H]2CC[C@@H](C)[C@@](O)(O2)C(=O)C(=O)N2CCCC[C@H]2C(=O)O[C@H]([C@H](C)C[C@@H]2CC[C@@H](OC(=O)NCCOCCOCCOCCOCCOCCOCCOCCOCCC(=O)NCCS(=O)(=O)c3ccc(C(=O)N4CCOc5ccc(-c6ccc(N)nc6)cc5C4)c(C)c3)[C@H](OC)C2)C[C@@H](OC)[C@H](C)/C=C(\C)[C@@H](O)[C@@H](OC)C(=O)[C@H](C)C[C@H](C)/C=C/C=C/C=C/1C [Example 42],IC50,P-4E-BP1 (T37/46),< 3.16 nM
same,IC50,P-Akt (S473),3.16 to 31.6 nM
same,IC50,P-P70S6K (T389),< 1 nM
CO[C@H]1C[C@@H]2CC[C@@H](C)[C@@](O)(O2)C(=O)C(=O)N2CCCC[C@H]2C(=O)O[C@H]([C@H](C)C[C@@H]2CC[C@@H](OC(=O)N3CCc4nc(N5CCN(c6ncc(C(=O)N7CCN(c8ncc(C(=O)N9CCc%10cc(Cn%11nc(-c%12cnc%13oc(N)nc%13c%12)c%12c(N)ncnc%12%11)ccc%10C9)cn8)CC7)cn6)CC5)ncc4C3)[C@H](OC)C2)CC(=O)[C@H](C)/C=C(\C)[C@@H](O)[C@@H](OC)C(=O)[C@H](C)C[C@H](C)/C=C/C=C/C=C/1C [Example 62],pIC50 for Inhibition of mTORC1 and mTORC2 Substrate Phosphorylation P-4E-BP1-(T37/46),P-4E-BP1 (T37/46),− (<6)
same,pIC50 for Inhibition of mTORC1 and mTORC2 Substrate Phosphorylation p-AKT1/2/3-(S473),P-Akt (S473),− (<6)
same,pIC50 for Inhibition of mTORC1 and mTORC2 Substrate Phosphorylation p-P70S6K-(T389),P-P70S6K (T389),++ (9 > pIC50 ≥ 8)
